According to ChEMBL document CHEMBL1154835, “Antimicrobial study of newly synthesized 6-substituted indolo[1,2-c]quinazolines” (2010):
≈ marks a conversion by molar mass, not a printed value.

Tests used:
[1] = system: Staphylococcus aureus; test: Antimicrobial activity against Staphylococcus aureus at 1000 ug after 24 hrs by cup plate method; format: functional; conditions: read-out: DIZ
[2] = system: Bacillus subtilis; test: Antimicrobial activity against Bacillus subtilis at 1000 ug after 24 hrs by cup plate method; format: functional; conditions: read-out: DIZ
[3] = system: Streptococcus pyogenes; test: Antimicrobial activity against Streptococcus pyogenes at 1000 ug after 24 hrs by cup plate method; format: functional; conditions: read-out: DIZ
[4] = system: Escherichia coli; test: Antimicrobial activity against Escherichia coli at 1000 ug after 24 hrs by cup plate method; format: functional; conditions: read-out: DIZ
[5] = system: Salmonella enterica; test: Antimicrobial activity against Salmonella Typhimurium at 1000 ug after 24 hrs by cup plate method; format: functional, Salmonella enterica subsp. enterica serovar Typhimurium; conditions: read-out: DIZ
[6] = system: Klebsiella pneumoniae; test: Antimicrobial activity against Klebsiella pneumoniae at 1000 ug after 24 hrs by cup plate method; format: functional; conditions: read-out: DIZ
[7] = system: Aspergillus niger; test: Antimicrobial activity against Aspergillus niger at 1000 ug after 72 hrs by cup plate method; format: functional; conditions: read-out: DIZ
[8] = system: Candida albicans; test: Antimicrobial activity against Candida albicans at 1000 ug after 72 hrs by cup plate method; format: functional; conditions: read-out: DIZ
[9] = system: Trichoderma viride; test: Antimicrobial activity against Trichoderma viride at 1000 ug after 72 hrs by cup plate method; format: functional; conditions: read-out: DIZ
[10] = system: Staphylococcus aureus; test: Antimicrobial activity against Staphylococcus aureus after 24 hrs by liquid dilution method; format: functional
[11] = system: Bacillus subtilis; test: Antimicrobial activity against Bacillus subtilis after 24 hrs by liquid dilution method; format: functional
[12] = system: Streptococcus pyogenes; test: Antimicrobial activity against Streptococcus pyogenes after 24 hrs by liquid dilution method; format: functional
[13] = system: Salmonella enterica; test: Antimicrobial activity against Salmonella Typhimurium after 24 hrs by liquid dilution method; format: functional, Salmonella enterica subsp. enterica serovar Typhimurium
[14] = system: Escherichia coli; test: Antimicrobial activity against Escherichia coli after 24 hrs by liquid dilution method; format: functional
[15] = system: Klebsiella pneumoniae; test: Antimicrobial activity against Klebsiella pneumoniae after 24 hrs by liquid dilution method; format: functional
[16] = system: Aspergillus niger; test: Antimicrobial activity against Aspergillus niger after 24 hrs by liquid dilution method; format: functional
[17] = system: Candida albicans; test: Antimicrobial activity against Candida albicans after 24 hrs by liquid dilution method; format: functional
[18] = system: Trichoderma viride; test: Antimicrobial activity against Trichoderma viride after 24 hrs by liquid dilution method; format: functional

Row | SMILES | MIC [10] [µg/mL] | MIC [11] [µg/mL] | MIC [12] [µg/mL] | MIC [13] [µg/mL] | MIC [14] [µg/mL] | MIC [15] [µg/mL] | MIC [16] [µg/mL] | MIC [17] [µg/mL] | MIC [18] [µg/mL] | zone of inhibition at 1000 µg/disc [1] [mm] | zone of inhibition at 1000 µg/disc [2] [mm] | zone of inhibition at 1000 µg/disc [3] [mm] | zone of inhibition at 1000 µg/disc [4] [mm] | zone of inhibition at 1000 µg/disc [5] [mm] | zone of inhibition at 1000 µg/disc [6] [mm] | zone of inhibition at 1000 µg/disc [7] [mm] | zone of inhibition at 1000 µg/disc [8] [mm] | zone of inhibition at 1000 µg/disc [9] [mm]
1 | COc1ccc2[nH]cc(-c3nc4ccccc4c4cc5ccccc5n34)c2c1 | 5 (≈ 13.8 µM) | 5 (≈ 13.8 µM) | 10 (≈ 27.5 µM) | 5 (≈ 13.8 µM) | 5 (≈ 13.8 µM) | 5 (≈ 13.8 µM) | 10 (≈ 27.5 µM) | 15 (≈ 41.3 µM) | 10 (≈ 27.5 µM) | 50 | 49 | 39 | 50 | 42 | 46 | 49 | 48 | 49
2 | c1ccc2c(c1)cc1c3ccccc3nc(-c3ccc(Oc4ccc(-c5nc6ccccc6c6cc7ccccc7n56)cc4)cc3)n21 |  |  |  |  |  |  |  |  |  | 18 | 14 | 13 | 14 | 11 | 21 | 10 | 9 | 18
3 | CC1(C)S[C@@H]2[C@H](NC(=O)[C@H](N)c3ccccc3)C(=O)N2[C@H]1C(=O)O [AMPICILLIN] | 10 (≈ 28.6 µM) | 20 (≈ 57.2 µM) | 25 (≈ 71.5 µM) | 10 (≈ 28.6 µM) | 5 (≈ 14.3 µM) | 10 (≈ 28.6 µM) |  |  |  | 48 | 39 | 35 | 40 | 45 | 45 |  |  | 
4 | c1ccc2c(c1)cc1c3ccccc3nc(-c3ccc(-c4nc5ccccc5c5cc6ccccc6n45)cc3)n21 |  |  |  |  |  |  |  |  |  | 25 | 14 | 18 | 16 | 11 | 13 | 12 | 21 | 9
5 | CC(=O)N1CCN(c2ccc(OCC3COC(Cn4ccnc4)(c4ccc(Cl)cc4Cl)O3)cc2)CC1 (stereo not given) [KETOCONAZOLE] |  |  |  |  |  |  | 15 (≈ 28.2 µM) | 25 (≈ 47 µM) | 20 (≈ 37.6 µM) |  |  |  |  |  |  | 45 | 40 | 41

Continued, in another order:

Row | MIC [10] [µg/mL] | MIC [11] [µg/mL] | MIC [12] [µg/mL] | MIC [13] [µg/mL] | MIC [14] [µg/mL] | MIC [15] [µg/mL] | MIC [16] [µg/mL] | MIC [17] [µg/mL] | MIC [18] [µg/mL] | SMILES | zone of inhibition at 1000 µg/disc [1] [mm] | zone of inhibition at 1000 µg/disc [2] [mm] | zone of inhibition at 1000 µg/disc [3] [mm] | zone of inhibition at 1000 µg/disc [4] [mm] | zone of inhibition at 1000 µg/disc [5] [mm] | zone of inhibition at 1000 µg/disc [6] [mm] | zone of inhibition at 1000 µg/disc [7] [mm] | zone of inhibition at 1000 µg/disc [8] [mm] | zone of inhibition at 1000 µg/disc [9] [mm]
6 | 5 (≈ 9.79 µM) | 15 (≈ 29.4 µM) | 15 (≈ 29.4 µM) | 20 (≈ 39.2 µM) | 10 (≈ 19.6 µM) | 35 (≈ 68.5 µM) | 30 (≈ 58.8 µM) | 30 (≈ 58.8 µM) | 25 (≈ 49 µM) | c1cc(-c2nc3ccccc3c3cc4ccccc4n23)cc(-c2nc3ccccc3c3cc4ccccc4n23)c1 | 51 | 46 | 48 | 20 | 35 | 18 | 12 | 15 | 21
7 | 5 (≈ 8.92 µM) | 15 (≈ 26.8 µM) | 15 (≈ 26.8 µM) | 35 (≈ 62.4 µM) | 35 (≈ 62.4 µM) | 20 (≈ 35.7 µM) | 35 (≈ 62.4 µM) | 25 (≈ 44.6 µM) | 30 (≈ 53.5 µM) | c1ccc2cc(-c3nc4ccccc4c4cc5ccccc5n34)c(-c3nc4ccccc4c4cc5ccccc5n34)cc2c1 | 50 | 45 | 39 | 12 | 14 | 35 | 17 | 16 | 12
8 | 5 (≈ 14.4 µM) | 10 (≈ 28.8 µM) | 5 (≈ 14.4 µM) | 5 (≈ 14.4 µM) | 2.5 (≈ 7.2 µM) | 2.5 (≈ 7.2 µM) | 2.5 (≈ 7.2 µM) | 20 (≈ 57.6 µM) | 5 (≈ 14.4 µM) | Cc1ccc2[nH]cc(-c3nc4ccccc4c4cc5ccccc5n34)c2c1 | 52 | 42 | 45 | 42 | 46 | 48 | 50 | 51 | 46
9 | 2.5 (≈ 7.13 µM) | 2.5 (≈ 7.13 µM) | 5 (≈ 14.3 µM) | 2.5 (≈ 7.13 µM) | 2.5 (≈ 7.13 µM) | 5 (≈ 14.3 µM) | 2.5 (≈ 7.13 µM) | 10 (≈ 28.5 µM) | 2.5 (≈ 7.13 µM) | c1ccc2c(c1)cc1c3ccccc3nc(-c3csc4ccccc34)n21 | 55 | 51 | 48 | 48 | 50 | 50 | 52 | 45 | 49
10 | 5 (≈ 13.5 µM) | 10 (≈ 26.9 µM) | 15 (≈ 40.4 µM) | 20 (≈ 53.8 µM) | 25 (≈ 67.3 µM) | 30 (≈ 80.8 µM) | 25 (≈ 67.3 µM) | 30 (≈ 80.8 µM) | 25 (≈ 67.3 µM) | c1ccc2c(c1)cc1c3ccccc3nc(-c3ccc(-c4ccncc4)cc3)n21 | 50 | 48 | 42 | 35 | 25 | 42 | 22 | 18 | 21
11 | 2.5 (≈ 7.5 µM) | 15 (≈ 45 µM) | 2.5 (≈ 7.5 µM) | 2.5 (≈ 7.5 µM) | 2.5 (≈ 7.5 µM) | 5 (≈ 15 µM) | 10 (≈ 30 µM) | 5 (≈ 15 µM) | 2.5 (≈ 7.5 µM) | c1ccc2c(c1)cc1c3ccccc3nc(-c3c[nH]c4ccccc34)n21 | 51 | 46 | 49 | 52 | 48 | 49 | 46 | 49 | 50
12 | 5 (≈ 9.79 µM) | 20 (≈ 39.2 µM) | 20 (≈ 39.2 µM) | 25 (≈ 49 µM) | 20 (≈ 39.2 µM) | 30 (≈ 58.8 µM) | 20 (≈ 39.2 µM) | 35 (≈ 68.5 µM) | 35 (≈ 68.5 µM) | c1ccc(-c2nc3ccccc3c3cc4ccccc4n23)c(-c2nc3ccccc3c3cc4ccccc4n23)c1 | 52 | 40 | 46 | 16 | 18 | 14 | 20 | 13 | 18
